{"source": "patent US20060040871A1", "about": "“Bacterial transforming agent” (priority 2003, published 2006)", "test_system": "MRSA", "test": "MIC of methicillin for MRSA isolates grown with glycine or GBE (Table 1)", "format": "cell-based, Staphylococcus aureus", "data": [{"smiles": "NCC(=O)O", "note": "[Glycine, glycine]", "values": [{"measurement": "strains tested achieving the target MIC", "setting": "0.2 M glycine, said of Table 1", "result": 50, "unit": "%"}, {"measurement": "MIC of methicillin", "setting": "CD40 (EMRSA-1), glycine 0.02M (0.15%)", "result": 32, "unit": "µg/mL"}, {"measurement": "MIC of methicillin", "setting": "CD40 (EMRSA-1), glycine 0.2M (1.5%)", "result": 4, "unit": "µg/mL"}, {"measurement": "MIC of methicillin", "setting": "DS09 (EMRSA-1), glycine 0.02M (0.15%)", "result": 32, "unit": "µg/mL"}, {"measurement": "MIC of methicillin", "setting": "DS09 (EMRSA-1), glycine 0.2M (1.5%)", "result": 4, "unit": "µg/mL"}, {"measurement": "MIC of methicillin", "setting": "E15-97 (EMRSA-15), glycine 0.02M (0.15%)", "result": 32, "unit": "µg/mL"}, {"measurement": "MIC of methicillin", "setting": "E15-97 (EMRSA-15), glycine 0.2M (1.5%)", "result": 4, "unit": "µg/mL"}, {"measurement": "MIC of methicillin", "setting": "E16-96 (EMRSA-16), glycine 0.02M (0.15%)", "result": 32, "unit": "µg/mL"}, {"measurement": "MIC of methicillin", "setting": "E16-96 (EMRSA-16), glycine 0.2M (1.5%)", "result": 4, "unit": "µg/mL"}, {"measurement": "MIC of methicillin", "setting": "JF1-32 (EMRSA-1), glycine 0.02M (0.15%)", "result": 32, "unit": "µg/mL"}, {"measurement": "MIC of methicillin", "setting": "JF1-32 (EMRSA-1), glycine 0.2M (1.5%)", "result": 4, "unit": "µg/mL"}, {"measurement": "MIC of methicillin", "setting": "L265, glycine 0.02M (0.15%)", "result": 64, "unit": "µg/mL"}, {"measurement": "MIC of methicillin", "setting": "L265, glycine 0.2M (1.5%)", "result": 8, "unit": "µg/mL"}, {"measurement": "MIC of methicillin", "setting": "L266, glycine 0.02M (0.15%)", "result": 64, "unit": "µg/mL"}, {"measurement": "MIC of methicillin", "setting": "L266, glycine 0.2M (1.5%)", "result": 8, "unit": "µg/mL"}, {"measurement": "MIC of methicillin", "setting": "L267, glycine 0.02M (0.15%)", "result": 32, "unit": "µg/mL"}, {"measurement": "MIC of methicillin", "setting": "L267, glycine 0.2M (1.5%)", "result": 8, "unit": "µg/mL"}, {"measurement": "MIC of methicillin", "setting": "L268, glycine 0.02M (0.15%)", "result": 32, "unit": "µg/mL"}, {"measurement": "MIC of methicillin", "setting": "L268, glycine 0.2M (1.5%)", "result": 8, "unit": "µg/mL"}, {"measurement": "MIC of methicillin", "setting": "L269, glycine 0.02M (0.15%)", "result": 16, "unit": "µg/mL"}, {"measurement": "MIC of methicillin", "setting": "L269, glycine 0.2M (1.5%)", "result": 4, "unit": "µg/mL"}, {"measurement": "MIC of methicillin", "setting": "L270, glycine 0.02M (0.15%)", "result": 8, "unit": "µg/mL"}, {"measurement": "MIC of methicillin", "setting": "L270, glycine 0.2M (1.5%)", "result": 4, "unit": "µg/mL"}, {"measurement": "MIC of methicillin", "setting": "L271, glycine 0.02M (0.15%)", "result": 8, "unit": "µg/mL"}, {"measurement": "MIC of methicillin", "setting": "L271, glycine 0.2M (1.5%)", "result": 4, "unit": "µg/mL"}, {"measurement": "MIC of methicillin", "setting": "L272, glycine 0.02M (0.15%)", "result": 16, "unit": "µg/mL"}, {"measurement": "MIC of methicillin", "setting": "L272, glycine 0.2M (1.5%)", "result": 2, "unit": "µg/mL"}, {"measurement": "MIC of methicillin", "setting": "L273, glycine 0.02M (0.15%)", "result": 8, "unit": "µg/mL"}, {"measurement": "MIC of methicillin", "setting": "L273, glycine 0.2M (1.5%)", "result": 4, "unit": "µg/mL"}, {"measurement": "MIC of methicillin", "setting": "L274, glycine 0.02M (0.15%)", "result": 16, "unit": "µg/mL"}, {"measurement": "MIC of methicillin", "setting": "L274, glycine 0.2M (1.5%)", "result": 4, "unit": "µg/mL"}, {"measurement": "MIC of methicillin", "setting": "L275, glycine 0.02M (0.15%)", "result": 32, "unit": "µg/mL"}, {"measurement": "MIC of methicillin", "setting": "L275, glycine 0.2M (1.5%)", "result": 8, "unit": "µg/mL"}, {"measurement": "MIC of methicillin", "setting": "L276, glycine 0.02M (0.15%)", "result": 16, "unit": "µg/mL"}, {"measurement": "MIC of methicillin", "setting": "L276, glycine 0.2M (1.5%)", "result": 4, "unit": "µg/mL"}, {"measurement": "MIC of methicillin", "setting": "L277, glycine 0.02M (0.15%)", "result": 8, "unit": "µg/mL"}, {"measurement": "MIC of methicillin", "setting": "L277, glycine 0.2M (1.5%)", "result": 4, "unit": "µg/mL"}, {"measurement": "MIC of methicillin", "setting": "L278, glycine 0.02M (0.15%)", "result": 64, "unit": "µg/mL"}, {"measurement": "MIC of methicillin", "setting": "L278, glycine 0.2M (1.5%)", "result": 16, "unit": "µg/mL"}, {"measurement": "MIC of methicillin", "setting": "L279, glycine 0.02M (0.15%)", "result": 64, "unit": "µg/mL"}, {"measurement": "MIC of methicillin", "setting": "L279, glycine 0.2M (1.5%)", "result": 2, "unit": "µg/mL"}, {"measurement": "MIC of methicillin", "setting": "L280, glycine 0.02M (0.15%)", "result": 16, "unit": "µg/mL"}, {"measurement": "MIC of methicillin", "setting": "L280, glycine 0.2M (1.5%)", "result": 4, "unit": "µg/mL"}, {"measurement": "MIC of methicillin", "setting": "L281, glycine 0.02M (0.15%)", "result": 32, "unit": "µg/mL"}, {"measurement": "MIC of methicillin", "setting": "L281, glycine 0.2M (1.5%)", "result": 4, "unit": "µg/mL"}, {"measurement": "MIC of methicillin", "setting": "L282, glycine 0.02M (0.15%)", "result": 32, "unit": "µg/mL"}, {"measurement": "MIC of methicillin", "setting": "L282, glycine 0.2M (1.5%)", "result": 4, "unit": "µg/mL"}, {"measurement": "MIC of methicillin", "setting": "L283, glycine 0.02M (0.15%)", "result": 32, "unit": "µg/mL"}, {"measurement": "MIC of methicillin", "setting": "L283, glycine 0.2M (1.5%)", "result": 4, "unit": "µg/mL"}, {"measurement": "MIC of methicillin", "setting": "L284, glycine 0.02M (0.15%)", "result": 32, "unit": "µg/mL"}, {"measurement": "MIC of methicillin", "setting": "L284, glycine 0.2M (1.5%)", "result": 2, "unit": "µg/mL"}, {"measurement": "MIC of methicillin", "setting": "L285, glycine 0.02M (0.15%)", "result": 32, "unit": "µg/mL"}, {"measurement": "MIC of methicillin", "setting": "L285, glycine 0.2M (1.5%)", "result": 4, "unit": "µg/mL"}, {"measurement": "MIC of methicillin", "setting": "L286, glycine 0.02M (0.15%)", "result": 32, "unit": "µg/mL"}, {"measurement": "MIC of methicillin", "setting": "L286, glycine 0.2M (1.5%)", "result": 4, "unit": "µg/mL"}, {"measurement": "MIC of methicillin", "setting": "L287, glycine 0.02M (0.15%)", "result": 32, "unit": "µg/mL"}, {"measurement": "MIC of methicillin", "setting": "L287, glycine 0.2M (1.5%)", "result": 4, "unit": "µg/mL"}, {"measurement": "MIC of methicillin", "setting": "L288, glycine 0.02M (0.15%)", "result": 32, "unit": "µg/mL"}, {"measurement": "MIC of methicillin", "setting": "L288, glycine 0.2M (1.5%)", "result": 4, "unit": "µg/mL"}, {"measurement": "MIC of methicillin", "setting": "L289, glycine 0.02M (0.15%)", "result": 32, "unit": "µg/mL"}, {"measurement": "MIC of methicillin", "setting": "L289, glycine 0.2M (1.5%)", "result": 4, "unit": "µg/mL"}, {"measurement": "MIC of methicillin", "setting": "L290, glycine 0.02M (0.15%)", "result": 32, "unit": "µg/mL"}, {"measurement": "MIC of methicillin", "setting": "L290, glycine 0.2M (1.5%)", "result": 4, "unit": "µg/mL"}, {"measurement": "MIC of methicillin", "setting": "L291, glycine 0.02M (0.15%)", "result": 32, "unit": "µg/mL"}, {"measurement": "MIC of methicillin", "setting": "L291, glycine 0.2M (1.5%)", "result": 4, "unit": "µg/mL"}, {"measurement": "MIC of methicillin", "setting": "L292, glycine 0.02M (0.15%)", "result": 32, "unit": "µg/mL"}, {"measurement": "MIC of methicillin", "setting": "L292, glycine 0.2M (1.5%)", "result": 4, "unit": "µg/mL"}, {"measurement": "MIC of methicillin", "setting": "L293, glycine 0.02M (0.15%)", "result": 32, "unit": "µg/mL"}, {"measurement": "MIC of methicillin", "setting": "L293, glycine 0.2M (1.5%)", "result": 4, "unit": "µg/mL"}, {"measurement": "MIC of methicillin", "setting": "L294, glycine 0.02M (0.15%)", "result": 32, "unit": "µg/mL"}, {"measurement": "MIC of methicillin", "setting": "L294, glycine 0.2M (1.5%)", "result": 4, "unit": "µg/mL"}, {"measurement": "MIC of methicillin", "setting": "MC01 (EMRSA-1), glycine 0.02M (0.15%)", "result": 32, "unit": "µg/mL"}, {"measurement": "MIC of methicillin", "setting": "MC01 (EMRSA-1), glycine 0.2M (1.5%)", "result": 4, "unit": "µg/mL"}, {"measurement": "MIC of methicillin", "setting": "NCTC 12493, glycine 0.02M (0.15%)", "result": 0.12, "unit": "µg/mL"}, {"measurement": "MIC of methicillin", "setting": "NCTC 12493, glycine 0.2M (1.5%)", "result": 0.06, "unit": "µg/mL"}, {"measurement": "MIC of methicillin", "setting": "PS3-32 (EMRSA-1), glycine 0.02M (0.15%)", "result": 32, "unit": "µg/mL"}, {"measurement": "MIC of methicillin", "setting": "PS3-32 (EMRSA-1), glycine 0.2M (1.5%)", "result": 4, "unit": "µg/mL"}, {"measurement": "MIC of methicillin", "setting": "SN31 (EMRSA-1), glycine 0.02M (0.15%)", "result": 32, "unit": "µg/mL"}, {"measurement": "MIC of methicillin", "setting": "SN31 (EMRSA-1), glycine 0.2M (1.5%)", "result": 4, "unit": "µg/mL"}, {"measurement": "MIC of methicillin", "setting": "ST11 (EMRSA-1), glycine 0.02M (0.15%)", "result": 32, "unit": "µg/mL"}, {"measurement": "MIC of methicillin", "setting": "ST11 (EMRSA-1), glycine 0.2M (1.5%)", "result": 4, "unit": "µg/mL"}, {"measurement": "MIC of methicillin", "setting": "SW2-32 (EMRSA-1), glycine 0.02M (0.15%)", "result": 32, "unit": "µg/mL"}, {"measurement": "MIC of methicillin", "setting": "SW2-32 (EMRSA-1), glycine 0.2M (1.5%)", "result": 4, "unit": "µg/mL"}]}]}
